Laboratory results: ChEMBL document CHEMBL3351314, “Neutrophil elastase inhibitors as potential anti-inflammatory therapies” (ACS Med Chem Lett, 2014)

Key:
Neutrophil elastase [1] = target: T1, Neutrophil elastase (Homo sapiens, UniProt P08246); experiment: Inhibition of neutrophil elastase in human plasma using MeOSuc-Ala-Ala-Pro-Val-AMC as substrate by fluorescence assay
T1 sequence (P08246 whole entry): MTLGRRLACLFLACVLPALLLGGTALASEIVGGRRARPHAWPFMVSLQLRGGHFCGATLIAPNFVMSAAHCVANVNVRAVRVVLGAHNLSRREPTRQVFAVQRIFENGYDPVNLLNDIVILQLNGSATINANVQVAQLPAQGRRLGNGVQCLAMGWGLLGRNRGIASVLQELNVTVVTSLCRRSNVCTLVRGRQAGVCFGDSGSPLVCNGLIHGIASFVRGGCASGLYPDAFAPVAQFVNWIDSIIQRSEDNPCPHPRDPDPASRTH

Neutrophil elastase [2] = target: T1, Neutrophil elastase; experiment: Inhibition of human neutrophil elastase using MeOSuc-Ala-Ala-Pro-Val-AMC as substrate after 15 mins by fluorescence assay

| EC50 (Neutrophil elastase [1]) | IC50 (Neutrophil elastase [2]) | Compound |
| --- | --- | --- |
| 4 nM | 3.7 nM | N#Cc1ccc(C2C3=C(CCC3=O)N(c3cccc(C(F)(F)F)c3)C(=O)N2CC(=O)N2CCC2)cc1 (centres undefined) |
| < 1 nM | < 1 nM | CS(=O)(=O)c1cc(C#N)ccc1C1C2=C(CCC2=O)N(c2cccc(C(F)F)c2)C(=O)N1C(=O)N1CC1 (centres undefined) |
